Data as given in PMC12595484, “Optimizing multifunctional fluorescent ligands for intracellular labeling” (Proceedings of the National Academy of Sciences of the …, 2025).

Experiments:
[1] = system: U2OS cells expressing HaloTag–H2B; experiment: Dye loading kinetics; format: cell-based; details: 200 nM
Method: U2OS cell culture, labeling, and fluorescence microscopy. U2OS cells (ATCC) were cultured in Dulbecco's modified Eagle medium (DMEM, phenol red-free; Life Technologies) supplemented with 10% (v/v) fetal bovine serum (FBS, Life Technologies), 1 mM GlutaMAX (Life Technologies) and maintained at 37 °C in a humidified 5% (v/v) CO2 environment. These cell lines undergo regular mycoplasma testing by the Janelia Cell Culture Facility. U2OS cells stably expressing an integrated HaloTag–histone H2B fusion protein (U2OS.H2B.HaloTag) were used for nuclear imaging and imaged 18–24 h post-plating. […]
Fixed cells were then washed
3× in 1× PBS and incubated with Hoechst 33342 (5µg/mL) for 15 min at 22 °C as a nuclear counterstain. Airyscan imaging was performed on a Zeiss LSM 980 with Airyscan 2 confocal microscope using a Plan APO 63×/1.4 oil DIC M27 objective. The same acquisition settings were used for all constructs labeled with 13HTL–16HTL. These single plane images were bulk processed in ZEN Blue (Zeiss) with automatic Airyscan settings.
Dye loading kinetics. Live U2OS.H2B.HaloTag stable cells were labeled over a time course of 0–4 h with 200 nM of biotin-JF549-HaloTag ligand (13HTL), biotin-JF608-HaloTag ligand (14HTL), biotin-JF646-HaloTag ligand (15HTL), or biotin-JF635-HaloTag ligand (16HTL) at 37 °C. Cells were […]
then washed 3× with dye-free media, fixed with 4% paraformaldehyde in 0.1 M phosphate buffer, pH 7.4 for 15 min at 37 °C. Confocal imaging was performed on a Leica SP8 with an HC PL APO CS2 20×/0.75 immersion objective using the tunable white light laser ( WLL) to excite dyes at their λabs in constant power mode. Fluorescence was quantified as the average integrated density of background corrected nuclear signals from confocal image stack projections analyzed in Fiji;14 n = 100 nuclear signals per compound. […]
(IB) consisting of KCl (0.18 M), ethylene glycol-bis(β-aminoethyl ether)-N,N,N′,N′-tetraacetic acid (EGTA; 1 mM), 3-(N-morpholino)propanesulfonic acid (MOPS; 5 mM); the pH was adjusted to pH = 7.35 using KOH(aq).15 StrepTactin Microbeads (IBA Lifesciences, 6-5510-050) were used as capture reagents as these beads had lowest amount of background observed in our hands. […]
The post-bead supernatant and wash volumes were pooled and spun at 15,000 g for 12 min. […] The affinity capture pulldown efficiency was monitored using in-gel fluorescence. The msGFP signal from HaloTag-TEV-4×GS-msGFP-mito after cell lysis and SDS-PAGE was analyzed, in-gel, using a Bio-Rad Chemidoc MP imager (Bio-Rad) through GFP fluorescence excitation and emission filters. Data were quantified by densitometry using Fiji.14 Capture efficiency was […]

HaloTag protein = target: T1, HaloTag protein (Rhodococcus rhodochrous, UniProt P0A3G2, A155T/A167V/A172T/A224E/C128F/C176G/D78G/E160K/E257K/H272N/K175M/K195N/L47V/L88M/N227D/S58T/T264A/Y273L/Y87F); experiment: Absorbance/fluorescence increase upon HaloTag binding; format: biochemical; details: HaloTag conjugate vs free ligand
T1 construct: made in house
T1 sequence (P0A3G2 other isoform, or with tags, fused parts or gaps with the stated changes): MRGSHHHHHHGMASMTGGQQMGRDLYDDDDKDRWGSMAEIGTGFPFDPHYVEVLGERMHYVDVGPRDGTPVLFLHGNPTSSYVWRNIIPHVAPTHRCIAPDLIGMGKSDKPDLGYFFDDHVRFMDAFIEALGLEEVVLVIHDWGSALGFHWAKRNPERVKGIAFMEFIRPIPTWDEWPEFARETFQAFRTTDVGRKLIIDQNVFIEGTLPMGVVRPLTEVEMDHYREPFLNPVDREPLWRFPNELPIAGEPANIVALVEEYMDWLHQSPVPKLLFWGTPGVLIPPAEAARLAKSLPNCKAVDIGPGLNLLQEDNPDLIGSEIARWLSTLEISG
Method: HaloTag protein purification. The bacterial expression vector pRSET-A (Invitrogen) was used to recombinantly express HaloTag (HT7; Promega).1 The soluble 6×His-Tagged HaloTag protein was affinity purified by immobilized metal affinity chromatography (IMAC) on a 5 -mL Fast Flow HiTrap Sepharose 6 column (Cytiva) with a 0–200 mM imidazole elution gradient using an Avant Protein Purification System (ÄKTA). A280 peak fractions were pooled, concentrated by a spin concentrator, and dialyzed 3× into tris-buffered saline (TBS). The amino acid sequence of HaloTag (HT7) expressed from pRSET-A is noted below; the annotated DNA and amino acid sequences […]
Spectroscopy of HaloTag ligands and HaloTag conjugates. […]
± 2 °C). Absorption spectra were recorded on a Cary Model 100 spectrometer (Agilent) using 1-cm path length 1.0-mL quartz microcuvettes from Starna Cells. Fluorescence spectra were recorded on a Cary Eclipse fluorometer (Varian) using 1-cm path length 3.5-mL quartz cuvettes (Starna Cells). […] An aliquot of HaloTag protein (1.5 equiv) was added, and the resulting mixture was incubated until a consistent absorbance signal was observed (60–120 min).
To measure the fold-increase of absorbance upon HaloTag binding, a “no HaloTag” control experiment was performed where an equivalent volume of TBS blank was added in place of the protein. […]

Row | SMILES | intracellular labeling over 4 h [1] | time to maximal intensity [1] [h] | fluorogenicity upon HaloTag binding (HaloTag protein) [fold]
1 | O=C(CCCCC1SCC2NC(=O)NC21)NCCOCCOCCNC(=O)C1C[N+](=c2ccc3c(-c4cc(C(=O)NCCOCCOCCCCCCCl)ccc4C(=O)[O-])c4ccc(N5CCC5)cc4oc-3c2)C1 (stereo not drawn) [13HTL, biotin–JF549–HaloTag ligand] | negligible intracellular labeling |  | 
2 | CC1(C)C2=CC(=[N+]3CC(C(=O)NCCOCCOCCNC(=O)CCCC[C@@H]4SC[C@@H]5NC(=O)N[C@@H]54)C3)C=CC2=C(c2cc(C(=O)NCCOCCOCCCCCCCl)ccc2C(=O)[O-])c2ccc(N3CCC3)cc21 (stereo partly drawn) [14HTL, biotin–JF608–HaloTag ligand] |  | 4 | 
3 | C[Si]1(C)C2=CC(=[N+]3CC(C(=O)NCCOCCOCCNC(=O)CCCC[C@@H]4SC[C@@H]5NC(=O)N[C@@H]54)C3)C=CC2=C(c2cc(C(=O)NCCOCCOCCCCCCCl)ccc2C(=O)[O-])c2ccc(N3CCC3)cc21 (stereo partly drawn) [15HTL, biotin–JF646–HaloTag ligand] |  | 1 | 2.9
4 | C[Si]1(C)C2=CC(=[N+]3CC(F)(C(=O)NCCOCCOCCNC(=O)CCCC[C@@H]4SC[C@@H]5NC(=O)N[C@@H]54)C3)C=CC2=C(c2cc(C(=O)NCCOCCOCCCCCCCl)ccc2C(=O)[O-])c2ccc(N3CC(F)C3)cc21 (stereo partly drawn) [16HTL, biotin–JF635–HaloTag ligand] |  | 1 | 17.6
